Measured values taken from the NIST ThermoML archive (doi:10.1016/j.tca.2011.08.002).
Numbers after ± are expanded uncertainties.

Experiments:
[1] = xn = mol fraction of the nth substance listed; conditions: 101 kPa, Liquid, Vibrating tube method, x1 = 1
[2] = refractive index (Na D-line) (dimensionless); xn = mol fraction of the nth substance listed; conditions: 101 kPa, Liquid, Standard Abbe refractometry, x1 = 1
[3] = 101 kPa, Liquid, Vibrating tube method
[4] = refractive index (Na D-line) (dimensionless); conditions: 101.33 kPa, Liquid, Standard Abbe refractometry

Structure (SMILES) | mass density ([1]; 303.15 K) [kg/m3] | mass density ([1]; 308.15 K) [kg/m3] | mass density ([1]; 313.15 K) [kg/m3] | mass density ([1]; 318.15 K) [kg/m3] | mass density ([1]; 323.15 K) [kg/m3] | refractive index ([2]; 303.15 K) | refractive index ([2]; 308.15 K) | refractive index ([2]; 313.15 K) | refractive index ([2]; 318.15 K) | refractive index ([2]; 323.15 K) | mass density ([3]; 303.15 K) [kg/m3] | mass density ([3]; 308.15 K) [kg/m3] | mass density ([3]; 313.15 K) [kg/m3] | mass density ([3]; 318.15 K) [kg/m3] | mass density ([3]; 323.15 K) [kg/m3] | refractive index ([4]; 303.15 K) | refractive index ([4]; 308.15 K) | refractive index ([4]; 313.15 K) | refractive index ([4]; 318.15 K) | refractive index ([4]; 323.15 K) | further results
CCCCCO [pentan-1-ol] + C1CCC(NC2CCCCC2)CC1 | 807.278 ± 0.24 | 803.558 ± 0.24 | 799.817 ± 0.24 | 796.001 ± 0.24 | 792.166 ± 0.24 | 1.40595 ± 0.0004 | 1.40388 ± 0.0004 | 1.40189 ± 0.0004 | 1.39987 ± 0.0004 | 1.39776 ± 0.0004 |  |  |  |  |  |  |  |  |  |  | mass density ([1]; 288.15 K): 818.282 ± 0.24 kg/m3; mass density ([1]; 293.15 K): 814.635 ± 0.24 kg/m3; mass density ([1]; 298.15 K): 810.968 ± 0.24 kg/m3; refractive index ([2]; 288.15 K): 1.41192 ± 0.0004; refractive index ([2]; 293.15 K): 1.40994 ± 0.0004; refractive index ([2]; 298.15 K): 1.40796 ± 0.0004
CC(C)(C)O [2-methylpropan-2-ol] + C1CCC(NC2CCCCC2)CC1 | 775.412 ± 0.14 | 770.193 ± 0.15 | 764.884 ± 0.15 | 759.488 ± 0.15 | 754.015 ± 0.15 | 1.38222 ± 0.00035 | 1.37947 ± 0.00035 | 1.37667 ± 0.00035 | 1.37384 ± 0.00035 | 1.37097 ± 0.00035 |  |  |  |  |  |  |  |  |  |  | 
CC(C)(C)O [2-methylpropan-2-ol] |  |  |  |  |  |  |  |  |  |  | 775.412 ± 0.14 | 770.193 ± 0.15 | 764.884 ± 0.15 | 759.488 ± 0.15 | 754.015 ± 0.15 | 1.38222 ± 0.00035 | 1.37947 ± 0.00035 | 1.37667 ± 0.00035 | 1.37384 ± 0.00035 | 1.37097 ± 0.00035 | 
CCCO [propan-1-ol] |  |  |  |  |  |  |  |  |  |  | 795.65 ± 0.15 | 791.576 ± 0.15 | 787.466 ± 0.15 | 783.309 ± 0.15 | 779.095 ± 0.16 | 1.38153 ± 0.00036 | 1.37929 ± 0.00036 | 1.37702 ± 0.00036 | 1.37483 ± 0.00036 | 1.37252 ± 0.00036 | mass density ([3]; 288.15 K): 807.69 ± 0.15 kg/m3; mass density ([3]; 293.15 K): 803.703 ± 0.15 kg/m3; mass density ([3]; 298.15 K): 799.692 ± 0.15 kg/m3; refractive index ([4]; 288.15 K): 1.38785 ± 0.00036; refractive index ([4]; 293.15 K): 1.38578 ± 0.00036; refractive index ([4]; 298.15 K): 1.38364 ± 0.00036
CCC(C)O (centres undefined) [butan-2-ol] + C1CCC(NC2CCCCC2)CC1 | 798.326 ± 0.24 | 794.03 ± 0.24 | 789.632 ± 0.24 | 785.117 ± 0.24 | 780.515 ± 0.24 | 1.39293 ± 0.0004 | 1.39064 ± 0.0004 | 1.38832 ± 0.0004 | 1.38596 ± 0.0004 | 1.38352 ± 0.0004 |  |  |  |  |  |  |  |  |  |  | mass density ([1]; 288.15 K): 810.689 ± 0.24 kg/m3; mass density ([1]; 293.15 K): 806.646 ± 0.24 kg/m3; mass density ([1]; 298.15 K): 802.528 ± 0.24 kg/m3; refractive index ([2]; 288.15 K): 1.39951 ± 0.0004; refractive index ([2]; 293.15 K): 1.39736 ± 0.0004; refractive index ([2]; 298.15 K): 1.39515 ± 0.0004
CCCCO [butan-1-ol] |  |  |  |  |  |  |  |  |  |  | 801.923 ± 0.15 | 798.053 ± 0.15 | 794.147 ± 0.15 | 790.231 ± 0.15 | 786.238 ± 0.15 | 1.39523 ± 0.00036 | 1.39318 ± 0.00036 | 1.3911 ± 0.00036 | 1.38901 ± 0.00036 | 1.38688 ± 0.00036 | mass density ([3]; 288.15 K): 813.373 ± 0.14 kg/m3; mass density ([3]; 293.15 K): 809.573 ± 0.14 kg/m3; mass density ([3]; 298.15 K): 805.762 ± 0.15 kg/m3; refractive index ([4]; 288.15 K): 1.40135 ± 0.00036; refractive index ([4]; 293.15 K): 1.39932 ± 0.00036; refractive index ([4]; 298.15 K): 1.3973 ± 0.00036
